Results as given in patent publication US20090221624A1, “4-AMINOQUINOLINE COMPOUNDS FOR TREATING VIRUS-RELATED CONDITIONS” (priority 2005, published 2009).
pEC50: −log10 of the molar value.

Tests used:
[1] = system: HCV replicon (Clone A cells, Huh7, subgenomic hepatits C virus RNA); experiment: HCV Neo screening assay (HCV replicon, NPTII ELISA); type: cell-based, hepatitis C virus; conditions: for pEC50 / inhibition at 25 µM: Hepatitis C virus, Huh-7; for pEC50: Secondary Data, HCV; for inhibition at 25 µM: primary screening, 25 μM final concentration, 24 hours, percent inhibition of viral replication, read-out: HCV Inh; for HCV TI: therapeutic index CC50/EC50, HCV
[2] = system: RSV minigenome; experiment: RSV minigenome-dependent β-galactosidase expression assay (RSV β-Gal); type: cell-based, respiratory syncytial virus; conditions: for pEC50 / inhibition at 25 µM: human respiratory syncytial virus; for pEC50: Secondary Data, RSV, read-out: RSV EC50; for inhibition at 25 µM: primary screening, 25 μM final concentration, 24 hours, percent inhibition of viral replication, read-out: RSV Inh; for RSV TI: therapeutic index CC50/EC50, RSV
[3] = system: WNV (WN-hRuPac cells); experiment: WNV antiviral activity, WN-hRuPac cells, Renilla luciferase; type: cell-based, West Nile virus; conditions: for inhibition at 25 µM / pEC50: West Nile virus; for inhibition at 25 µM: primary screening, 25 μM final concentration, 24 hours, percent inhibition of viral replication, read-out: WNV Inh; for pEC50: Secondary Data, WNV, read-out: WNV EC50; for WNV TI: therapeutic index CC50/EC50, WNV
[4] = system: YFV (YF-hRuPac cells); experiment: microbe, parasite or virus in culture; type: cell-based, yellow fever virus; conditions: for inhibition at 25 µM / pEC50: Yellow fever virus; for inhibition at 25 µM: 24 h, read-out: YFV Inh; for pEC50: read-out: YFV EC50
[5] = system: DNG (D2-hRuPac cells); experiment: DNG antiviral activity, D2-hRuPac cells, Renilla luciferase; type: cell-based, Dengue fever virus; conditions: Dengue virus, secondary screening
[6] = system: EBOV minigenome; experiment: microbe, parasite or virus in culture; type: cell-based, Ebola virus; conditions: Zaire ebolavirus; for inhibition at 25 µM: 24 h, read-out: EBOV Inh; for pEC50: read-out: EBOV EC50
[7] = system: SINV (SR19-F-luc cells); experiment: SINV antiviral activity, SR19-F-luc cells, Firefly luciferase; type: cell-based; conditions: Sindbis virus; for inhibition at 25 µM: primary screening, 25 μM final concentration, 24 hours, percent inhibition of viral replication, read-out: SINV Inh; for pEC50: secondary screening, SR19-F-luc cells
[8] = in vitro

Structure (SMILES) | inhibition at 25 µM [1] [%] | pEC50 [2] | inhibition at 25 µM [2] [%] | RSV TI [2] | inhibition at 25 µM [3] [%] | YFV TI [4] | inhibition at 25 µM [4] [%] | pEC50 [4] | pEC50 [5] | inhibition at 25 µM [6] [%] | pEC50 [6] | inhibition at 25 µM [7] [%] | pEC50 [7] | CC50 ([8]; DNG CC50) [µM] | CC50 ([8]; EBOV CC50) [µM] | CC50 ([8]; HCV CC50) [µM] | CC50 ([8]; RSV CC50) [µM] | CC50 ([8]; SINV CC50) [µM] | CC50 ([8]; WNV CC50) [µM] | CC50 ([8]; YFV CC50) [µM] | also measured
CCOC(=O)c1cnc2ccc(C)cc2c1Nc1ccc(N2CCOCC2)cc1 [Compound 38] | 88.4 | 5.30 | 98.2 | 14.85 | 36.5 | 1.94 | 70.8 | 4.41 | ≤ 4.12 | -36.4 | 4.12 | 43.2 | ≤ 4.12 | ≥ 75 | ≥ 75 | 19 | ≥ 75 | ≥ 75 | ≥ 75 | ≥ 75 | pEC50 [1]: 5.02; HCV TI [1]: 2
CCOC(=O)c1cnc2ccc(C)cc2c1NCc1ccco1 [Compound 39] | 22.4 | 5.83 | 91.6 | 18.33 | 102 | 8.95 | 96.6 | 5.52 | 5.15 | 64.1 | 5.14 | 71.9 | ≤ 4.12 | 26.9 | 26.9 | ≥ 75 | 26.9 | 26.9 | 26.9 | 26.9 | pEC50 [3]: 5.26; WNV TI [3]: 4.94
Cc1cc(Nc2cccc(C(F)(F)F)c2)c2cc(Cl)ccc2n1 [Compound 40] | 96.1 | 5.61 | 99.3 | 24.68 | 65.6 | 9.3 | 79.6 | 5.19 | 4.39 | 26.3 | 4.12 | 69.5 | 4.84 | 60 | 60 | 5.53 | 60 | 60 | 60 | 60 | pEC50 [1]: 5.26; HCV TI [1]: 1; pEC50 [3]: 5.08; WNV TI [3]: 7.15
CCOc1ccc2nc(C)cc(Nc3ccc(Br)cc3)c2c1 [Compound 41] | 117 | 5.69 | 99.4 | 14.11 | 100 | 7.97 | 96.5 | 5.44 | 5.10 | 95.2 | 4.12 | 97.2 | 5.53 | 28.8 | 28.8 | 3.01 | 28.8 | 28.8 | 28.8 | 28.8 | pEC50 [1]: 5.40; HCV TI [1]: 0.75; pEC50 [3]: 5.13; WNV TI [3]: 3.89
CCOc1ccc2nc(C)cc(Nc3ccc(OCc4ccccc4Cl)cc3)c2c1 [Compound 42] | 96.5 | 5.83 | 100 | 17.29 | 100 | 14.22 | 100 | 5.74 | 5.30 | 99.5 | 4.18 | 99.8 | 5.52 | 25.6 | 25.6 | 1.21 | 25.6 | 25.6 | 25.6 | 25.6 | pEC50 [1]: 5.89; HCV TI [1]: 0.93; pEC50 [3]: 5.72; WNV TI [3]: 13.47
COc1ccc2nc(C)cc(Nc3ccc(OCc4ccccc4Cl)cc3)c2c1 [Compound 43] | 95.4 | 5.65 | 100 | 11.63 | 99.9 | 18.48 | 100 | 5.85 | 5.78 | 98.7 | 4.12 | 99.7 | 5.39 | 26.1 | 26.1 | 2.09 | 26.1 | 26.1 | 26.1 | 26.1 | pEC50 [1]: 5.80; HCV TI [1]: 1.31; pEC50 [3]: 5.26; WNV TI [3]: 4.78
Cc1cc(C)c2nc(C)cc(Nc3ccc(OCc4ccccc4)cc3)c2c1 [Compound 44] | 94.7 | 5.41 | 98.9 | 7.06 | 99.9 | 12.12 | 100 | 5.65 | 5.47 | 99.6 | 4.12 | 95.8 | 5.45 | 27.4 | 27.4 | 5.05 | 27.4 | 27.4 | 27.4 | 27.4 | pEC50 [1]: 5.53; HCV TI [1]: 1.72; pEC50 [3]: 5.37; WNV TI [3]: 6.39
CCOc1ccc2nc(C)cc(Nc3ccc(C)c(Cl)c3)c2c1 [Compound 45] | 119 | 5.53 | 99.9 | 8.59 | 99 | 11.95 | 100 | 5.67 | 5.30 | 96.2 | 4.12 | 95.7 | 5.49 | 25.3 | 25.3 | 4.66 | 25.3 | 25.3 | 25.3 | 25.3 | pEC50 [1]: 5.36; HCV TI [1]: 1.06; pEC50 [3]: 5.50; WNV TI [3]: 7.99
